Data on 23 compounds can be found in patent US8088936B2, “Leukotriene B4 inhibitors” (Hoffman-La Roche Inc., priority 2009, dated 2012).

The test system of the test is Human leukemia HL-60 cells endogenously expressing BLT1 and BLT2 receptors. Nature of the test: Ca2+ flux assay for LTB4 antagonist assay (HL-60 FLIPR). It counts as cell-based. The following applies: retinoic acid induced HL-60 cells, inhibition of LTB4-induced Ca2+ flux, 30 min preincubation; read-out: LTB4 antagonism (HL-60 FLIPR). The method, then:
Assay of Compounds for Inhibition of LTB4 Activity
Ca^2+Flux Assay for LTB4 Antagonist Assay
Human leukemia HL-60 cells endogenously expressing BLT1 and BLT2 receptors were cultured in RPMI-1640 medium supplemented with 20% fetal bovine serum, 2 mM glutamine, 100 U/ml penicillin and 100 ug/ml streptomycin.
Seventy two hours prior to experiment cells are counted using ViaCount reagent, centrifuged and resuspended at 2.0×10^5 cells/ml density with the complete growth media containing 1 μM Retinoic Acid (Sigma).
On a day of the experiment loading buffer (Calcium-3 Assay Kit, Molecular Devices) was prepared by dissolving the contents of one vial (Express Kit) into 500 ml Hank's Balanced Salt Solution containing 20 mM HEPES and 5 mM probenecid. Equal volume of the loading buffer was mixed with the replacement buffer (Hank's Balanced Salt Solution containing 20 mM HEPES, 0.05% BSA and 5 mM probenecid). Retinoic Acid induced HL-60 cells were counted using ViaCount reagent, centrifuged and resuspended at 2.0×10^6 cells/ml density with the loading buffer/replacement buffer, dispensed into 384 well black/clear microplates (Falcon) (25 μl/well) and placed in a 37° C./5% CO2 incubator for 1 hour.
During the incubation, test compounds were prepared at 6× the desired concentration in HBSS/20 mM HEPES/0.05% BSA as well as LTB4 (Biomol) was prepared at 2.2× concentration in HBSS/20 mM HEPES/0.5% BSA buffer.
After the incubation, both the cell and compound plates were brought to the FLIPR and 5 μl of the diluted compounds were transferred to the cell plates by the FLIPR. Plates were then incubated for 30 min at room temperature. After the ½ hour incubation, plates were returned to the FLIPR and 25 μl of 2.2×LTB4 was added to the cell plates. During the assay, fluorescence readings were taken simultaneously from all 384 wells of the cell plate every 1.5 seconds. Five readings were taken to establish a stable baseline, then 25 μl (LTB4) of sample was rapidly and simultaneously added to each well of the cell plate. The fluorescence was continuously monitored before, during and after sample addition for a total elapsed time of 100 seconds. Responses (increase in peak fluorescence) in each well following agonist addition was determined. The initial fluorescence reading from each well, prior to ligand stimulation, was used a zero baseline value for the data from that well. The responses are expressed as % inhibition of the neutral control (neural control: wells that received buffer plus DMSO but no test compound).
With `COCc1cc(OCCCCCCc2cccc(OCCCC(=O)O)c2CCC(=O)O)cc(-c2ccc(F)cc2)c1` [Example 10, 4-{2-(2-Carboxy-ethyl)-3-[6-(4′-fluoro-5-methoxymethyl-biphenyl-3-yloxy)-hexyl]-phenoxy}-butyric acid], the IC50 is 2.52 nM. Turning to `COCc1cc(OCCCCCCc2cccc(OCCCC(=O)O)c2CCC(=O)O)cc(-c2ccc3c(c2)OCCO3)c1` [Example 12, 4-(2-(2-Carboxy-ethyl)-3-{6-[3-(2,3-dihydro-benzo[1,4]dioxin-6-yl)-5-methoxymethyl-phenoxy]-hexyl}-phenoxy)-butyric acid], the IC50 came to 1.38 nM. For `O=C(O)CCCOc1cccc(CCCCCCOc2cc(OCc3ccccc3)cc(-c3cccc(F)c3)c2)c1CCC(=O)O` [Example 59, 4-[3-[6-(5-Benzyloxy-3′-fluoro-biphenyl-3-yloxy)-hexyl]-2-(2-carboxy-ethyl)-phenoxy]-butyric acid] the value was 132 nM; for `CS(=O)(=O)c1ccc(-c2cc(CO)cc(OCCCCCCc3cccc(OCCCC(=O)O)c3CCC(=O)O)c2)cc1` [Example 7, 4-[2-(2-Carboxy-ethyl)-3-[6-(5-hydroxymethyl-4′-methanesulfonyl-biphenyl-3-yloxy)-hexyl]-phenoxy]-butyric acid], 83.2 nM; for `O=C(O)CCCOc1cccc(CCCCCCOc2cc(CO)cc(-c3ccc4c(c3)OCCO4)c2)c1CCC(=O)O` [Example 6, 4-(2-(2-Carboxy-ethyl)-3-{6-[3-(2,3-dihydro-benzo[1,4]dioxin-6-yl)-5-hydroxymethylphenoxy]-hexyl}-phenoxy)-butyric acid], 7.39 nM. Next, `COCc1cc(OCCCCCCc2cccc(OCCCC(=O)O)c2CCC(=O)O)cc(-c2cscc2C)c1` [Example 13, 4-(2-(2-Carboxy-ethyl)-3-{6-[3-methoxymethyl-5-(4-methyl-thiophen-3-yl)-phenoxy]-hexyl}-phenoxy)-butyric acid]: 140 nM; `CCOc1cc(OCCCCCCc2cccc(OCCCC(=O)O)c2CCC(=O)O)cc(-c2ccc3c(c2)OCO3)c1` [Example 43, 4-[3-[6-(3-Benzo[1,3]dioxol-5-yl-5-ethoxy-phenoxy)-hexyl]-2-(2-carboxy-ethyl)-phenoxy]-butyric acid]: 0.22 nM.

`O=C(O)CCCOc1cccc(CCCCCCOc2cc(OCc3ccccc3)cc(-c3ccccc3)c2)c1CCC(=O)O` [Example 58, 4-[3-[6-(5-Benzyloxy-biphenyl-3-yloxy)-hexyl]-2-(2-carboxy-ethyl)-phenoxy]-butyric acid]: the IC50 was 74.6 nM. Next, `CCOc1cc(OCCCCCCc2cccc(OCCCC(=O)O)c2CCC(=O)O)cc(-c2ccc(Cl)cc2)c1` [Example 49, 4-[2-(2-Carboxy-ethyl)-3-[6-(4′-chloro-5-ethoxy-biphenyl-3-yloxy)-hexyl]-phenoxy]-butyric acid]: 6.05 nM. Next, `CCOc1cc(OCCCCCCc2cccc(OCCCC(=O)O)c2CCC(=O)O)cc(-c2ccsc2)c1` [Example 45, 4-[2-(2-Carboxy-ethyl)-3-[6-(3-ethoxy-5-thiophen-3-yl-phenoxy)-hexyl]-phenoxy]-butyric acid]: 0.4 nM; `CN(C)Cc1cc(OCCCCCCc2cccc(OCCCC(=O)O)c2CCC(=O)O)cc(-c2ccncc2)c1` [Example 40, 4-{2-(2-Carboxy-ethyl)-3-[6-(3-dimethylaminomethyl-5-pyridin-4-yl-phenoxy)-hexyl]-phenoxy}-butyric acid]: 0.42 nM; `CC(=O)c1cc(OCCCCCCc2cccc(OCCCC(=O)O)c2CCC(=O)O)cc(-c2ccccc2)c1` [Example 66, 4-[3-[6-(5-Acetyl-biphenyl-3-yloxy)-hexyl]-2-(2-carboxy-ethyl)-phenoxy]-butyric acid]: 3.33 nM.

For the compound `O=C(O)CCCOc1cccc(CCCCCCOc2cc(C(=O)C3CCCC3)cc(-c3ccc4c(c3)OCO4)c2)c1CCC(=O)O` [Example 73, 4-[3-[6-(3-Benzo[1,3]dioxol-5-yl-5-cyclopentanecarbonyl-phenoxy)-hexyl]-2-(2-carboxy-ethyl)-phenoxy]-butyric acid], the IC50 turned out to be 0.77 nM.

`COCc1cc(OCCCCCCc2cccc(OCCCC(=O)O)c2CCC(=O)O)cc(-c2ccc3[nH]ccc3c2)c1` [Example 23, 4-[2-(2-Carboxy-ethyl)-3-{6-[3-(1H-indol-5-yl)-5-methoxymethyl-phenoxy]-hexyl}-phenoxy]-butyric acid]: the IC50 was determined as 30.2 nM.

For `O=C(O)CCCOc1cccc(CCCCCCOc2cc(OCc3ccccc3)cc(-c3ccsc3)c2)c1CCC(=O)O` [Example 61, 4-[3-[6-(3-Benzyloxy-5-thiophen-3-yl-phenoxy)-hexyl]-2-(2-carboxy-ethyl)-phenoxy]-butyric acid], the IC50 was found to be 77.7 nM. With `O=C(O)CCCOc1cccc(CCCCCCOc2cc(CO)cc(-c3ccc4c(c3)OCO4)c2)c1CCC(=O)O` [Example 1, 4-[3-[6-(3-Benzo[1,3]dioxol-5-yl-5-hydroxymethyl-phenoxy)-hexyl]-2-(2-carboxy-ethyl)-phenoxy]-butyric acid], the IC50 is 3.1 nM. `CCOc1cc(OCCCCCCc2cccc(OCCCC(=O)O)c2CCC(=O)O)cc(-c2ccc(F)c(F)c2)c1` [Example 50, 4-[2-(2-Carboxy-ethyl)-3-[6-(3′,4′-difluoro-5-ethoxy-biphenyl-3-yloxy)-hexyl]-phenoxy]-butyric acid]: the IC50 was 8.27 nM. Regarding `O=C(O)CCCOc1cccc(CCCCCCOc2cc(OCC3CCCC3)cc(-c3cccc(F)c3)c2)c1CCC(=O)O` [Example 63, 4-[2-(2-Carboxy-ethyl)-3-[6-(5-cyclopentylmethoxy-3′-fluoro-biphenyl-3-yloxy)-hexyl]-phenoxy]-butyric acid], the IC50 was determined as 32.5 nM. `O=C(O)CCCOc1cccc(CCCCCCOc2cc(OCc3ccccc3)cc(-c3ccc4c(c3)OCO4)c2)c1CCC(=O)O` [Example 60, 4-[3-[6-(3-Benzo[1,3]dioxol-5-yl-5-benzyloxy-phenoxy)-hexyl]-2-(2-carboxy-ethyl)-phenoxy]-butyric acid]: the IC50 turned out to be 4.59 nM. As for `COCc1cc(OCCCCCCc2cccc(OCCCC(=O)O)c2CCC(=O)O)cc(-c2ccc(Cl)cc2)c1` [Example 11, 4-{2-(2-Carboxy-ethyl)-3-[6-(4′-chloro-5-methoxymethyl-biphenyl-3-yloxy)-hexyl]-phenoxy}-butyric acid], the IC50 came out at 1.37 nM. For `CN(C)Cc1cc(OCCCCCCc2cccc(OCCCC(=O)O)c2CCC(=O)O)cc(-c2ccc(S(C)(=O)=O)cc2)c1` [Example 38, 4-{2-(2-Carboxy-ethyl)-3-[6-(5-dimethylaminomethyl-4′-methanesulfonyl-biphenyl-3-yloxy)-hexyl]-phenoxy}-butyric acid] the value was 2.22 nM. For `CCOc1cc(OCCCCCCc2cccc(OCCCC(=O)O)c2CCC(=O)O)cc(-c2cccc(F)c2)c1` [Example 47, 4-[2-(2-Carboxy-ethyl)-3-[6-(5-ethoxy-3′-fluoro-biphenyl-3-yloxy)-hexyl]-phenoxy]-butyric acid] the value was 2.32 nM; for `COCc1cc(OCCCCCCc2cccc(OCCCC(=O)O)c2CCC(=O)O)cc(-c2ccc(S(C)(=O)=O)cc2)c1` [Example 24, 4-[2-(2-Carboxy-ethyl)-3-[6-(4′-methanesulfonyl-5-methoxymethyl-biphenyl-3-yloxy)-hexyl]-phenoxy]-butyric acid], 6.83 nM.
